Active and inactive are the calls of the source.
Columns and labels:
P388 = experiment: cells; assay type: functional; details: Mus musculus
SN12K1 = experiment: cells; assay type: functional; details: Homo sapiens
P388/ADR = experiment: cells; assay type: functional; details: Mus musculus
[1] = ZM109 Env clade C HIV-1 fusion inhibitors, dose response, HeLa effector, CEM target cells, luciferase, cherry-pick (AID 652058); assay type: functional, cell-based
[2] = inhibitors of HIV Env-driven cell fusion, dose response, cherry-pick (AID 652057); assay type: functional, cell-based
[3] = off-target signal loss in HeLa-CEM21 co-culture – HeLa F-luc CTL cells, cherry-picked, counter-screen for HIV-1 Env fusion inhibitor project, dose response (AID 652040); assay type: functional, cell-based;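 note: potency for signal decrease marking cytotoxic or nonspecific inhibition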
[4] = inhibitors of clade B AD8 Env fusion, dose response, cell-based, cherry-pick (AID 652062); assay type: functional;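 note: luciferase signal from cell-cell fusion driven by HIV-1 clade B AD8 Env; potency is for inhibitors of fusion seen as a drop in luminescence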
cells [5] = assay type: functional, cell-based
cells [6] = assay type: functional, cell-based; remark: listed apart in the source
[7] = HepG2 cell cytotoxicity, dose response, cytotoxicity control for Shn3 inhibitor project, CellTiter-Glo, cherry-picked (AID 624134); assay type: functional, cell-based
[8] = inhibitors of intracellular T. cruzi replication, confirmation, NIH3T3 host cells, beta-gal luminescence (AID 2044); assay type: functional, cell-based;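 note: intracellular parasites grown in NIH/3T3 mouse fibroblasts as host cells; luminescent beta-galactosidase reporter signal from transgenic T. cruzi replicating inside host cells; inhibitors lower the luminescence signal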
[9] = cytotoxicity toward NIH3T3 fibroblasts, dose response, counter-screen, cell-based, ATP luminescence, mouse fibroblasts (AID 2010); assay type: functional;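 note: cells exposed to compound for about 90 hours before reading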
[10] = Shn3 3'UTR reporter inhibitors, dose response, cell-based, Clone20 osteoblasts, firefly luciferase, cherry-picked (AID 624132); assay type: functional;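 note: firefly luciferase luminescence from reporter carrying the Shn3 3'UTR in osteoblasts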
[11] = control 3'UTR Renilla luciferase suppression, dose response, counter-screen for Shn3 inhibitor project, cell-based, Clone20-Shn3RL, cherry-picked (AID 624133); assay type: functional
Streptokinase A = molecular target: T1, Streptokinase A (Streptococcus pyogenes serotype M1, UniProt P10520); experiment: S. pyogenes streptokinase expression inhibitors, potency, dose response, plasminogen activation absorbance, OD405 (AID 1914); assay type: functional, Streptococcus pyogenes M1 GAS;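 note: secreted streptokinase activity via plasminogen activation per viability signal from cell pellet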
T1 sequence (P10520 whole entry): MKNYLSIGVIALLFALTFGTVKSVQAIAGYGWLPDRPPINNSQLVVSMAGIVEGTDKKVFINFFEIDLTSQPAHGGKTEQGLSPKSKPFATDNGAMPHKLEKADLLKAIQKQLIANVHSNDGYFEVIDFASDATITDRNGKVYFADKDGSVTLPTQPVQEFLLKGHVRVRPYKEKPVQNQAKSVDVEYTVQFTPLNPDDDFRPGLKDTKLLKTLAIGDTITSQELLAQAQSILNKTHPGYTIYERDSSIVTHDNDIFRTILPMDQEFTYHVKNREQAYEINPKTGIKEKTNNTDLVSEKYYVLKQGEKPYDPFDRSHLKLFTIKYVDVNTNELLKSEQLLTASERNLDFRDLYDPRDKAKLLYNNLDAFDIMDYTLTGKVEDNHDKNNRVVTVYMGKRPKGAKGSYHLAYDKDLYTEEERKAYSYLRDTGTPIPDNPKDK

[12] = Luminescence Cell-Based Dose Retest to Confirm Inhibitors of Cancer Stem Cells. [Related pubchem assays (depositor defined):AID2717, AID2721]; assay type: functional; details: Homo sapiens
[13] = test system: Streptococcus sp. 'group A'; experiment: growth inhibition of control SK(-) GAS strain, dose response, counter-screen for streptokinase expression inhibitor project, luminescence, kanamycin, BacTiterGlo, confirmation (AID 1900); assay type: functional, organism-based
Streptococcus = experiment: Group A Streptococcus viability loss, dose response, counter-screen for streptokinase expression inhibitor project, luminescence, BacTiterGlo (AID 1915); assay type: functional, organism-based;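 note: potency for reduction of bacterial viability or growth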
Cytochrome P450 2D6 = Cytochrome P450 2D6 (Homo sapiens, UniProt P10635);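 note: CYP2D6 member of a cytochrome P450 panel assay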
Chain of Cytochrome P450 2D6 (P10635 whole entry): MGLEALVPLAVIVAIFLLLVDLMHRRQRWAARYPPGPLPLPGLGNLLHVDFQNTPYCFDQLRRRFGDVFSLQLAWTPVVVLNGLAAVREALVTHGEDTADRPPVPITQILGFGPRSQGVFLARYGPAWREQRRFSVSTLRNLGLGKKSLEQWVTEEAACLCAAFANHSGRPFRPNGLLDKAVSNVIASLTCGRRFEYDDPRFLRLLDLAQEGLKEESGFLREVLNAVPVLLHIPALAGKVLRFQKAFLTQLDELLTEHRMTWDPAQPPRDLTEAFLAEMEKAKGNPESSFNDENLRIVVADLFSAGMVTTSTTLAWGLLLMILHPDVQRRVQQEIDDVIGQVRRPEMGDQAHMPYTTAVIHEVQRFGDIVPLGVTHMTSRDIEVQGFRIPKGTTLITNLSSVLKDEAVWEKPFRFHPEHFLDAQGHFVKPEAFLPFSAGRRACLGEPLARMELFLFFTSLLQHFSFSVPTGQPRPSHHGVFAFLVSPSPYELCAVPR

Cytochrome P450 1A2 = molecular target: T2, Cytochrome P450 1A2 (Homo sapiens, UniProt P05177);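 note: PubChem cytochrome P450 panel assay, CYP1A2 panel member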
T2 sequence (P05177 whole entry): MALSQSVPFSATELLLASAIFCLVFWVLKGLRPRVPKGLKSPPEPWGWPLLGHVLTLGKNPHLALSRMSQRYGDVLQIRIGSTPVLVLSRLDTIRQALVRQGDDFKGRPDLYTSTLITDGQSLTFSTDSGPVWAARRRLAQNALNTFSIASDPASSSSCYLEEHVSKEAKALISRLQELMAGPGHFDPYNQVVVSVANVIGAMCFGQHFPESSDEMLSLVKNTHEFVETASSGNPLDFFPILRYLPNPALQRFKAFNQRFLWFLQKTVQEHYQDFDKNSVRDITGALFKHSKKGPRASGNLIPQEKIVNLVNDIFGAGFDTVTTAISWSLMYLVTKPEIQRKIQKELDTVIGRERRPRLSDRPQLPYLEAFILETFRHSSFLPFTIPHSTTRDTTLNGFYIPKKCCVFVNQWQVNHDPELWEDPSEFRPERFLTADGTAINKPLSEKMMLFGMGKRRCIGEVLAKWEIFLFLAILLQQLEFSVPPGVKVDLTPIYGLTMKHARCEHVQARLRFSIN

Cytochrome P450 3A4 = Cytochrome P450 3A4 (Homo sapiens, UniProt P08684);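 note: CYP3A4 tested as one member of a cytochrome P450 panel screen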
Chain of Cytochrome P450 3A4 (P08684 whole entry): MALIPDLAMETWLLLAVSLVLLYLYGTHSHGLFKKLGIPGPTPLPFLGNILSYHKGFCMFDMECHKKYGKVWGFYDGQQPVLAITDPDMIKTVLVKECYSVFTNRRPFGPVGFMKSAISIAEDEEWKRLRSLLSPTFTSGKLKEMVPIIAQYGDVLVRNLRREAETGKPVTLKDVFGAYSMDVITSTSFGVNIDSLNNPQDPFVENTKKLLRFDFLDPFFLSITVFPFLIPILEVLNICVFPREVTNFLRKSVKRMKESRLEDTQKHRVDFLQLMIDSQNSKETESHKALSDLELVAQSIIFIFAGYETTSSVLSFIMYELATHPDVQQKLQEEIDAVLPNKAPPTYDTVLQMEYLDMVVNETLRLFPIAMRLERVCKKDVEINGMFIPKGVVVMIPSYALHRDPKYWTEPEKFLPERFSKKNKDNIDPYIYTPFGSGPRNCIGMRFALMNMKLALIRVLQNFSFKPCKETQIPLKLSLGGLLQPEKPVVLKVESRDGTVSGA

Cytochrome P450 2C19 = Cytochrome P450 2C19 (Homo sapiens, UniProt P33261); experiment: Cytochrome panel assay with activity outcomes. Panel member name: p450-cyp2c19 Compounds with AC50 equal or less than 10 uM are considered active; assay type: functional; details: read-out: AC50
Chain of Cytochrome P450 2C19 (P33261 whole entry): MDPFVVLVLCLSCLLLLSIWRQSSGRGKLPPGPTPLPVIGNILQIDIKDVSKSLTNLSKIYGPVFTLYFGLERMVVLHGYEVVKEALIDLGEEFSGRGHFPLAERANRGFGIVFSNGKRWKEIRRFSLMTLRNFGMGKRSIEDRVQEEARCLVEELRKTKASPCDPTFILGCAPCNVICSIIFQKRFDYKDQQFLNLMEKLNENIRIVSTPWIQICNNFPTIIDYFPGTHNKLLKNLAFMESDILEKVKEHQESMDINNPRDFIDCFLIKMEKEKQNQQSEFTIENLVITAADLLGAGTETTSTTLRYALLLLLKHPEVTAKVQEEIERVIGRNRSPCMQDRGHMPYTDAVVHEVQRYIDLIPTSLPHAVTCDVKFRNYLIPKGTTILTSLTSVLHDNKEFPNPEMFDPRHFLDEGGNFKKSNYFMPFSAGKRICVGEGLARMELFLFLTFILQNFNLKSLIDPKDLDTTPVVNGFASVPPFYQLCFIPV

HEK293 = experiment: inhibitors of LMP1-driven NF-kB reporter, dose response, cell-based, HEK293, luciferase, cherry-pick (AID 588343); assay type: functional; details: Homo sapiens
Cytochrome P450 2C9 = Cytochrome P450 2C9 (Homo sapiens, UniProt P11712)
Chain of Cytochrome P450 2C9 (P11712 whole entry): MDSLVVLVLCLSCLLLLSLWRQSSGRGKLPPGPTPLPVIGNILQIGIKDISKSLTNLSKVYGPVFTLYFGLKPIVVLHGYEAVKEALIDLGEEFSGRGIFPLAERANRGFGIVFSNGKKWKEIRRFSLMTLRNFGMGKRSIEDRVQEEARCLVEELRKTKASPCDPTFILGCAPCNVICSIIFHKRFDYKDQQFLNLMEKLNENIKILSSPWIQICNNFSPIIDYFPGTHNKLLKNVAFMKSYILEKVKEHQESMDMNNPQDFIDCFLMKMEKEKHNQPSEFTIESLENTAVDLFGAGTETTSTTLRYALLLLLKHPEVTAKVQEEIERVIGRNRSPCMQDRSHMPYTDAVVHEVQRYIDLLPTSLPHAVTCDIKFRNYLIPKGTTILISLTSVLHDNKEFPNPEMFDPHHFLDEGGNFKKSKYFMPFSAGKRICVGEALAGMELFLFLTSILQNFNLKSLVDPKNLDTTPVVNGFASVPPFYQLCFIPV

[14] = Luminescence Cell-Based Dose Response HTS to Identify Inhibitors of 5'UTR Stem-Loop Driven Prion Protein mRNA Translation in H4 Neuroglioblastoma Cells. [Related pubchem assays: 1827 (Project Summary), 1813 (Primary HTS)]; assay type: functional
[15] = molecular target: Luciferin 4-monooxygenase (Photinus pyralis, UniProt P08659); experiment: firefly luciferase enzyme inhibitors, dose response, biochemical, luminescence (AID 1891)
Chain of Luciferin 4-monooxygenase (P08659 whole entry): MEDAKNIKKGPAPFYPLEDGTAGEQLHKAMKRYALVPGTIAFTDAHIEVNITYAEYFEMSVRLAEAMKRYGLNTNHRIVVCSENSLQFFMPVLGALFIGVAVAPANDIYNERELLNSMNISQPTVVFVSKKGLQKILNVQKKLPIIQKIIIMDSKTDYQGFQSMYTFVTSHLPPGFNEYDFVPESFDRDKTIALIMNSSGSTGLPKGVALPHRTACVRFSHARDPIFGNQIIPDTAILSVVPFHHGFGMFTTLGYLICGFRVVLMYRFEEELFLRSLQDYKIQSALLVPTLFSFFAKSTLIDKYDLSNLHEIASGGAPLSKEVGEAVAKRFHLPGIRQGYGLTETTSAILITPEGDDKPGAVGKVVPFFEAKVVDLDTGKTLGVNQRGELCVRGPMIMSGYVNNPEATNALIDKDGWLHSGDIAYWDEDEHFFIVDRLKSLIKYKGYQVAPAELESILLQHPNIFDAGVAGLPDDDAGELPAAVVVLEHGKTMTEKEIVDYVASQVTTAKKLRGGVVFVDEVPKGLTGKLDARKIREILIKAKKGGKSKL

[16] = inhibitors of firefly luciferase expression or activity, dose response, H4 neuroglioma cells, luminescence (AID 1990); assay type: functional, cell-based
[17] = inhibitors of SNCA 5'UTR-driven reporter translation, confirmation, H4 neuroglioma cells, luminescence (AID 1988); assay type: functional, cell-based
[18] = Luminescence Cell-Based Dose Confirmation HTS to Identify Inhibitors of Platelet Dense Granule Release. [Related pubchem assays: 1663 (Primary HTS), 1678 (Summary of Project)]; assay type: functional

Compound: O=NN(CCF)C(=O)NC1CC2CCC1C2 (centres undefined)
- GI50 (P388): 15.8 µM (inactive)
- GI50 (SN12K1): > 100 µM (inactive)
- GI50 (P388/ADR): 24.5 µM (inactive)

Compound: Cc1ccc(S(=O)(=O)N2CCC(=O)N(CCOCc3ccc(C(F)(F)F)cc3)CC2)cc1
- AC50 [1]: 3.68 µM (active)
- AC50 [2]: 5.79 µM (active)
- AC50 [3]: 14.6 µM (active)
- AC50 [4]: 6.53 µM (active)

Compound: O=C(NNC(=O)c1cccnc1SCc1cccc([N+](=O)[O-])c1)c1ccccn1
- EC50 (cells [5]): > 350 µM (not active)
- EC50 (cells [6]): 27.8 µM (active)
- AC50 [7]: 7.84 µM (active)
- EC50 [8]: 0.994 µM (active)
- EC50 [9]: 1.65 µM (active)
- AC50 [10]: 1.9 µM (active)
- AC50 [11]: 1.32 µM (active)

Compound: CCC/C=C(\CCC)C(NS(=O)(=O)c1ccc(C(F)(F)F)cc1)c1ccccc1 (centres undefined)
- EC50 (Streptokinase A): 2.24 µM (active)
- AC50 [12]: 3.36 µM (active)
- EC50 [13]: 2.73 µM (active)
- EC50 (Streptococcus): 22.5 µM (active)
- AC50 (Cytochrome P450 2D6): 20 µM (inconclusive)

Compound: CCC(C)NC(=O)Cn1cnc2sc(C)cc2c1=O (centres undefined)
- AC50 (Cytochrome P450 1A2): 6.31 µM (inconclusive)
- AC50 (Cytochrome P450 2D6): 25.1 µM (inconclusive)

Compound: Cn1cc([N+](=O)[O-])c(C(=O)Nc2sc3c(c2C#N)CCC3)n1
- AC50 [7]: 8.93 µM (active)
- AC50 [10]: 0.88 µM (active)

Compound: CCNc1ncc2nc(-c3ccc(F)cc3)c(=O)n(-c3ccc(OC)cc3)c2n1
- AC50 (Cytochrome P450 3A4): 20 µM (inconclusive)
- AC50 (Cytochrome P450 1A2): 6.31 µM (inconclusive)
- AC50 (Cytochrome P450 2D6): 0.158 µM (inconclusive)

Compound: CC1(C)CC2(CCO1)OC(=O)CC2C(=O)NCCc1ccccc1 (centres undefined)
- AC50 (Cytochrome P450 3A4): 28.2 µM (inconclusive)
- AC50 (Cytochrome P450 2C19): 25.1 µM (inconclusive)
- AC50 (Cytochrome P450 2D6): 22.4 µM (inconclusive)

Compound: CCCCN1C2CCCC1CC(NC(=O)C1CCCCC1)C2 (centres undefined)
- AC50 (HEK293): 237 µM (active)

Compound: O=C(Cn1ccnc1[N+](=O)[O-])N(CCO)CCO
- GI50 (P388): > 1250 µM (inactive)
- GI50 (SN12K1): > 1250 µM (inactive)
- GI50 (P388/ADR): > 1250 µM (inactive)

Compound: CCN1CCN(Cc2ccc(NC(=O)c3ccc(C)c(NC(=O)c4ccno4)c3)cc2C(F)(F)F)CC1
- AC50 (HEK293): 0.0518 µM (active)

Compound: CCOC(=O)C1=C(C(C)=O)CSC(c2ccccc2)=N1
- GI50 (P388): > 100 µM (inactive)
- GI50 (SN12K1): > 100 µM (inactive)
- GI50 (P388/ADR): 68.5 µM (inactive)

Compound: O=C(c1ccccc1O)c1cc(-c2ncc3c(=O)c4ccccc4oc3n2)c(-c2ccccc2O)[nH]c1=O
- GI50 (P388): 19.7 µM (inactive)
- GI50 (SN12K1): 17.5 µM (inactive)
- GI50 (P388/ADR): 22.4 µM (inactive)

Compound: COc1cccc(-c2nc3c(C(=O)NCCN(C)C)cccc3[nH]2)c1
- GI50 (P388): 4.45 µM (inactive)
- GI50 (SN12K1): 12.4 µM (inactive)
- GI50 (P388/ADR): 13.7 µM (inactive)

Compound: COC(=O)C(C/C=C(\C)c1ccccc1)C(C)=O (centres undefined)
- GI50 (P388): 27.2 µM (inactive)
- GI50 (SN12K1): 45.2 µM (inactive)
- GI50 (P388/ADR): 29 µM (inactive)

Compound: COC(=O)[C@]1(c2ccc(N(C)C)cc2OC)C[C@@H]2CCCN(CCc3c1[nH]c1ccccc31)C2
- GI50 (P388): 16.7 µM (inactive)
- GI50 (SN12K1): 17.4 µM (inactive)
- GI50 (P388/ADR): 18.1 µM (inactive)

Compound: COc1ccc(OC)c(CN2C(=O)c3ccccc3C2c2nnnn2-c2c(C)cccc2C)c1 (centres undefined)
- AC50 [1]: 3.93 µM (active)
- AC50 [2]: 4.69 µM (active)
- AC50 [3]: 19 µM (active)

Compound: COc1cc(C2c3cc4c(cc3[C@@H](Nc3ccc(F)cc3)C3COC(=O)[C@H]23)OCO4)cc(OC)c1O (some centres undefined)
- GI50 (P388): < 0.01 µM (active)
- GI50 (P388/ADR): 0.09 µM (active)

Compound: Cc1ccccc1CN1CC2=C(CCN(Cc3ccccc3)C2=O)N2CCN=C12
- AC50 [7]: 3.31 µM (active)
- AC50 [10]: 2.41 µM (active)
- AC50 [11]: 29.6 µM (active)

Compound: CC(C)(C)n1nc(-c2ccc(Cl)cc2)c2c(N)ncnc21
- AC50 (Cytochrome P450 2C9): 7.08 µM (inconclusive)
- EC50 [14]: 12.4 µM (active)
- EC50 [15]: 23.3 µM (active)
- EC50 [16]: 7.3 µM (active)
- AC50 (HEK293): 12.2 µM (active)
- EC50 [17]: 6.21 µM (active)
- EC50 [18]: 5.58 µM (active)

— ChEMBL document CHEMBL1201862, “PubChem BioAssay data set” (2004)
